Patent US4499083A, “3-O-Demethyl derivatives of the istamycin B series of compounds” (Zaidan Hojin Biseibutsu Kagaku Kenkyu Kai, priority 1980, dated 1985)

Key:
[1] = tested on: Pseudomonas aeruginosa; details: relative to istamycin A; earlier filings; cited from earlier work
[2] = in vivo; details: mouse, iv
[3] = tested on: Gram-negative and Gram-positive bacteria; assay: Antibacterial activity, overall statement; assay type: cell-based
Procedure: The antibacterial spectra of 3-O-demethylistamycin B.sesquicarbonate and 3-O-demethyl-2"-N-formimidoylistamycin B.disulphate.trihydrate are shown in Table 2, along with that of istamycin B for comparison purposes.
*^1 Determined according to a standard serial dilution method on
nutrient agar plates which were incubated at 37° C. for 17 hours.

[4] = tested on: mice; assay: Acute toxicity by intravenous injection in mice

Molecule	antibacterial activity against Pseudomonas aeruginosa compared with istamycin A [1]	MTD [2]	antibacterial activity (in words) [3]	toxicity (in words) [4]
di-N^6',O^3 -demethylistamycin A	significantly higher than that of istamycin A			
CNCC1CCC(N)C(OC2C(N)CC(O)C(NC)C2O)O1 (stereo not shown) [3-O-Demethylistamycin BO]		160 mg/kg	poor antibacterial activity	low toxicity
